Source: PubChem BioAssay AID743264
Activity calls are given as the source filed them.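 The calls were made as follows: active = mean IC50 for blocking HCV helicase binding to DNA at 50 µM or lower; inactive = mean IC50 above 50 µM.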

Biological target: HCV NS3 helicase (NS3h) (UniProt A3EZJ3)
Test: HCV NS3 helicase inhibitor potency, dose response, biochemical, fluorescence polarization, ChemBridge library (AID 743264)
Details: NS3h binding Cy5-dT15 DNA

HCV NS3 helicase (NS3h), sequence (A3EZJ3 1-631): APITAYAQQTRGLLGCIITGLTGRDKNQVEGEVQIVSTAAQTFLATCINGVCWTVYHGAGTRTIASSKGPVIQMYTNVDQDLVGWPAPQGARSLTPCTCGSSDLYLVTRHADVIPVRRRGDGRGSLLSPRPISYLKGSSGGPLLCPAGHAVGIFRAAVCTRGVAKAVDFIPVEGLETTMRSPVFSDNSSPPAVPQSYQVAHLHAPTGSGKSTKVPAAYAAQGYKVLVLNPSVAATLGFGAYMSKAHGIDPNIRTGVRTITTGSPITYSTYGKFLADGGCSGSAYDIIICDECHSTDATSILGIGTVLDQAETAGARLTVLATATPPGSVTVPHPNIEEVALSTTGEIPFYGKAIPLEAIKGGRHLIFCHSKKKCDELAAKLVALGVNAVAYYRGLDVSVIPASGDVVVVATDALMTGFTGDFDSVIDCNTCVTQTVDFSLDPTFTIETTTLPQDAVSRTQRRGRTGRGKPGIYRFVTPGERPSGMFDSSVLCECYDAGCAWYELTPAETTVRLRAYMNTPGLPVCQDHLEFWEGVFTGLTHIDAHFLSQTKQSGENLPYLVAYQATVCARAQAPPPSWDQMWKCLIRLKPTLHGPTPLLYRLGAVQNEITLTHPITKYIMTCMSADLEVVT

Row | SMILES | IC50
1 | Cc1ccc(N2C(=O)C=CC2=O)c(Br)c1 | inactive
2 | O=C1C=CC(=O)N1c1cccc([N+](=O)[O-])c1 | inactive
